Results reported in PubChem BioAssay AID2060340 (Molecular Pharmacology Branch, DTP, NCI, 2025).

System: 349418-098-R-PDC spheroids, viability, % test/control
Test: Anticancer human tumor 349418-098-R-PDC patient-derived lung adenocarcinoma cell line growth inhibition [IpAb]
Conditions: spheroids with HUVEC and MSC; for IC50: curve of first compound; for viability, T/C: stronger effect = lower value
Method in brief: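 Multi-cell spheroids of 60% tumour cells, 25% HUVEC and 15% MSC in ultra-low-attachment U-bottom wells, treated with agents combined with ipatasertib or abemaciclib. Half-log ranges top out near clinical Cmax, or 10 microM when Cmax is unknown.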
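Also: spheroids exposed to compounds for 7 days.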

With `C=CCn1c(=O)c2cnc(Nc3ccc(N4CCN(C)CC4)cc3)nc2n1-c1cccc(C(C)(C)O)n1` + CCN1CCN(Cc2ccc(Nc3ncc(F)c(-c4cc(F)c5nc(C)n(C(C)C)c5c4)n3)nc2)CC1 the IC50 (second compound 0.01 µM) was 164 nM, the IC50 (second compound 0.0316 µM) was 101 nM and the IC50 (second compound 0.1 µM) was under 31.6 nM. It also gave an IC50 (second compound 0.316 µM) of under 31.6 nM, an IC50 (second compound 1 µM) of under 31.6 nM and a viability, T/C (second compound 0.01 µM, first compound 0.0316 µM) of 78.5%. It also gave a viability, T/C (second compound 0.01 µM, first compound 0.1 µM) of 76.4%, a viability, T/C (second compound 0.01 µM, first compound 0.316 µM) of 15.1% and a viability, T/C (second compound 0.01 µM, first compound 1 µM) of 5.22%. It also gave a viability, T/C (second compound 0.01 µM, first compound 3.16 µM) of 4.65%, a viability, T/C (second compound 0.01 µM, first compound 10 µM) of 5.36% and a viability, T/C (second compound 0.0316 µM, first compound 0.0316 µM) of 65.1%. The viability, T/C (second compound 0.0316 µM, first compound 0.1 µM) was 50.2%, the viability, T/C (second compound 0.0316 µM, first compound 0.316 µM) was 13.4% and the viability, T/C (second compound 0.0316 µM, first compound 1 µM) was 6.17%. For the same molecule, the viability, T/C (second compound 0.0316 µM, first compound 3.16 µM) was 4.95%, the viability, T/C (second compound 0.0316 µM, first compound 10 µM) was 4.75% and the viability, T/C (second compound 0.1 µM, first compound 0.0316 µM) was 38.4%. For the same molecule, the viability, T/C (second compound 0.1 µM, first compound 0.1 µM) was 30%, the viability, T/C (second compound 0.1 µM, first compound 0.316 µM) was 13.3% and the viability, T/C (second compound 0.1 µM, first compound 1 µM) was 7%. The viability, T/C (second compound 0.1 µM, first compound 3.16 µM) was 6.21%, the viability, T/C (second compound 0.1 µM, first compound 10 µM) was 5.25% and the viability, T/C (second compound 0.316 µM, first compound 0.0316 µM) was 23.6%. It also gave a viability, T/C (second compound 0.316 µM, first compound 0.1 µM) of 20.2%, a viability, T/C (second compound 0.316 µM, first compound 0.316 µM) of 14.4% and a viability, T/C (second compound 0.316 µM, first compound 1 µM) of 10%. The viability, T/C (second compound 0.316 µM, first compound 3.16 µM) was 7.67%, the viability, T/C (second compound 0.316 µM, first compound 10 µM) was 6.46% and the viability, T/C (second compound 1 µM, first compound 0.0316 µM) was 17.9%. For the same molecule, the viability, T/C (second compound 1 µM, first compound 0.1 µM) was 15.5%, the viability, T/C (second compound 1 µM, first compound 0.316 µM) was 11.4% and the viability, T/C (second compound 1 µM, first compound 1 µM) was 9.92%. For the same molecule, the viability, T/C (second compound 1 µM, first compound 3.16 µM) was 6.96% and the viability, T/C (second compound 1 µM, first compound 10 µM) was 5.12%.

For `Cn1cnc2c(F)c(Nc3ccc(Br)cc3Cl)c(C(=O)NOCCO)cc21` + CCN1CCN(Cc2ccc(Nc3ncc(F)c(-c4cc(F)c5nc(C)n(C(C)C)c5c4)n3)nc2)CC1, the IC50 (second compound 0.01 µM) was under 9.49 nM, the IC50 (second compound 0.0316 µM) was under 9.49 nM and the IC50 (second compound 0.1 µM) was under 9.49 nM. It also gave an IC50 (second compound 0.316 µM) of under 9.49 nM, an IC50 (second compound 1 µM) of under 9.49 nM and a viability, T/C (second compound 0.01 µM, first compound 0.00949 µM) of 41.1%. It also gave a viability, T/C (second compound 0.01 µM, first compound 0.03 µM) of 33.9%, a viability, T/C (second compound 0.01 µM, first compound 0.0949 µM) of 27.2% and a viability, T/C (second compound 0.01 µM, first compound 0.3 µM) of 28.7%. The viability, T/C (second compound 0.01 µM, first compound 0.949 µM) was 17.3%, the viability, T/C (second compound 0.01 µM, first compound 3 µM) was 8.8% and the viability, T/C (second compound 0.0316 µM, first compound 0.00949 µM) was 26.7%. The viability, T/C (second compound 0.0316 µM, first compound 0.03 µM) was 21.7%, the viability, T/C (second compound 0.0316 µM, first compound 0.0949 µM) was 18.9% and the viability, T/C (second compound 0.0316 µM, first compound 0.3 µM) was 17.9%. It also gave a viability, T/C (second compound 0.0316 µM, first compound 0.949 µM) of 12.1%, a viability, T/C (second compound 0.0316 µM, first compound 3 µM) of 7.93% and a viability, T/C (second compound 0.1 µM, first compound 0.00949 µM) of 15.1%. It also gave a viability, T/C (second compound 0.1 µM, first compound 0.03 µM) of 14.7%, a viability, T/C (second compound 0.1 µM, first compound 0.0949 µM) of 12% and a viability, T/C (second compound 0.1 µM, first compound 0.3 µM) of 11.2%. The viability, T/C (second compound 0.1 µM, first compound 0.949 µM) was 9.1%, the viability, T/C (second compound 0.1 µM, first compound 3 µM) was 6.69% and the viability, T/C (second compound 0.316 µM, first compound 0.00949 µM) was 12.1%. The viability, T/C (second compound 0.316 µM, first compound 0.03 µM) was 11.2%, the viability, T/C (second compound 0.316 µM, first compound 0.0949 µM) was 10.1% and the viability, T/C (second compound 0.316 µM, first compound 0.3 µM) was 9.23%. For the same molecule, the viability, T/C (second compound 0.316 µM, first compound 0.949 µM) was 8.49%, the viability, T/C (second compound 0.316 µM, first compound 3 µM) was 7.04% and the viability, T/C (second compound 1 µM, first compound 0.00949 µM) was 9.97%. The viability, T/C (second compound 1 µM, first compound 0.03 µM) was 10.1%, the viability, T/C (second compound 1 µM, first compound 0.0949 µM) was 10.6% and the viability, T/C (second compound 1 µM, first compound 0.3 µM) was 8.23%. For the same molecule, the viability, T/C (second compound 1 µM, first compound 0.949 µM) was 8.1% and the viability, T/C (second compound 1 µM, first compound 3 µM) was 6.68%.
